This test concerns the target Cannabinoid receptor 2 (Homo sapiens, UniProt P34972). Put plainly: Radioligand Binding Assay. As to the method:
The affinity of the compounds of the invention for cannabinoid CB1 receptors was determined using recommended amounts of membrane preparations (PerkinElmer) of human embryonic kidney (HEK) cells expressing the human CNR1 or CNR2 receptors in conjunction with 1.5 or 2.6 nM [3H]-CP-55,940 (Perkin Elmer) as radioligand, respectively. Binding was performed in binding buffer (50 mM Tris, 5 mM MgCl2, 2.5 mM EDTA, and 0.5% (wt/vol) fatty acid free BSA, pH 7.4 for CB1 receptor and 50 mM Tris, 5 mM MgCl2, 2.5 mM EGTA, and 0.1% (wt/vol) fatty acid free BSA, pH 7.4 for CB2 receptor) in a total volume of 0.2 ml for 1 h at 30° C. shaking. The reaction was terminated by rapid filtration through microfiltration plates coated with 0.5% polyethylenimine (UniFilter GF/B filter plate; Packard). Bound radioactivity was analyzed for Ki using nonlinear regression analysis (Activity Base, ID Business Solution, Limited), with the Kd values for [3H]CP55,940 determined from saturation experiments. The compounds of formula (I) show an excellent affinity for the CB2 receptor.

The record followed here is BindingDB's records for patent US12180196 (Hoffmann-La Roche, 2024).

Broadly, the Ki is a measure of affinity in units of concentration, obtained from inhibition or displacement. Lower therefore signals tighter binding.

Molecules are shown by their SMILES.

Cannabinoid receptor 2, sequence (P34972 whole entry): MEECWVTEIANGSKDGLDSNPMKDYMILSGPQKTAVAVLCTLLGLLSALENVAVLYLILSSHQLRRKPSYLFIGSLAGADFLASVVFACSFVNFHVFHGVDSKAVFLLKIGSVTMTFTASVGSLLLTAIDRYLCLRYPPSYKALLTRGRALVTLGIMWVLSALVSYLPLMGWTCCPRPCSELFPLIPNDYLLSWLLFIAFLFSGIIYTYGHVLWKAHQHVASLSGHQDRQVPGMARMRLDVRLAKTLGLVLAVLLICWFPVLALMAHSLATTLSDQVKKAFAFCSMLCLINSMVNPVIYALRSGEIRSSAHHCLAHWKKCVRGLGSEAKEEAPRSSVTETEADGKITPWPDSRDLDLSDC

As for `CCOC(=O)C(CC)(CC)NC(=O)c1ccc(N2CC(OCF)C2)c(OCC2CC2)n1` [US12180196, Example 3], the affinity corresponds to a Ki of 14 nM.
